Residue numbers refer to the chain shown, from its start.
Tests used:
Aster-A [1] = molecular target: T1, Aster-A (Mus musculus, UniProt Q8VEF1, L400A); experiment: CD thermal stabilization; type: binding
T1 sequence (Q8VEF1 334-562 L400A): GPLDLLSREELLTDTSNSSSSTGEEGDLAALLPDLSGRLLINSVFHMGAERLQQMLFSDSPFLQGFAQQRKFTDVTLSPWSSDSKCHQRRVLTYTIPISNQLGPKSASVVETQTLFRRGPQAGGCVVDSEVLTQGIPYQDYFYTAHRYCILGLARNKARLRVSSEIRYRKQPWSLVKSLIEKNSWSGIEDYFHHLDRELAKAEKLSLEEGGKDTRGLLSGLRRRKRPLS

Aster-A [2] = molecular target: T2, Aster-A (Mus musculus, UniProt Q8VEF1, L400A/F405I); experiment: CD thermal stabilization; type: binding
T2 sequence (Q8VEF1 334-562 L400A/F405I): T1 sequence (Q8VEF1 334-562 L400A) with F72I

CD thermal stabilization (Aster-A [1]): but the stability was increased by EZ
Structure (SMILES): O=C1[C@H](CC[C@H](O)c2ccc(F)cc2)[C@@H](c2ccc(O)cc2)N1c1ccc(F)cc1 [EZ, ezetimibe]
CD thermal stabilization (Aster-A [2]): The Aster-A mutant L400A_F405I, as well as the single mutant L400A, reduced Aster-A thermal stability

— paper PMC11073449 (Science (New York, N.Y.), 2023)
